What was measured:
[1] = biological target: T1, Aurora kinase C (Homo sapiens) (UniProt Q9UQB9); conditions: at 10 µM
T1 sequence (whole entry): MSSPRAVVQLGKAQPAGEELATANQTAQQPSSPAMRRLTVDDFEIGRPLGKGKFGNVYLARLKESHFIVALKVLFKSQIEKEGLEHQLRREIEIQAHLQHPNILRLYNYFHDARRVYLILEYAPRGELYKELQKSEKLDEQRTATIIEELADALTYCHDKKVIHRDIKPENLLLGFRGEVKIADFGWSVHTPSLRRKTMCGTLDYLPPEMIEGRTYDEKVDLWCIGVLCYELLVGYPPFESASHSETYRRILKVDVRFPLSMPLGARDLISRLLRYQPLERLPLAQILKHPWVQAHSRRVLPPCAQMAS

[2] = biological target: Mitogen-activated protein kinase 9 (Homo sapiens, UniProt P45984); assay: Selectivity interaction (Ambit KINOMEscan and KiNATiv profiling in Jurkat cells) EUB0000090b MAPK9; format: cell-based; conditions: at 1 µM
Mitogen-activated protein kinase 9, sequence (P45984 whole entry, looked up): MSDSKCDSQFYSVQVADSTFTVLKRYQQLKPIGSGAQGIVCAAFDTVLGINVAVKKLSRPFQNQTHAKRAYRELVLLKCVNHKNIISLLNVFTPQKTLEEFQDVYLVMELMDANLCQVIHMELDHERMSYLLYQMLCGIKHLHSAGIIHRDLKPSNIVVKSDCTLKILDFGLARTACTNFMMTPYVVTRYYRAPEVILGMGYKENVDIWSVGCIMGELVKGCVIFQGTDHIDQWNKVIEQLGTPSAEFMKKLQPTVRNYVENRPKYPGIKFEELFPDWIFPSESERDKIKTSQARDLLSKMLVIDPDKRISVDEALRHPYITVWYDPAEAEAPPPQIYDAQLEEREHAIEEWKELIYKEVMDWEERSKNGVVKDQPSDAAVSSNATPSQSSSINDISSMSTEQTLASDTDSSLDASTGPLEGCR

[3] = biological target: T2, Serine/threonine-protein kinase TAO1 (Homo sapiens) (UniProt Q7L7X3); assay: Selectivity interaction (KinomeScan (DiscoverX)) EUB0000045b TAOK1
T2 sequence (whole entry): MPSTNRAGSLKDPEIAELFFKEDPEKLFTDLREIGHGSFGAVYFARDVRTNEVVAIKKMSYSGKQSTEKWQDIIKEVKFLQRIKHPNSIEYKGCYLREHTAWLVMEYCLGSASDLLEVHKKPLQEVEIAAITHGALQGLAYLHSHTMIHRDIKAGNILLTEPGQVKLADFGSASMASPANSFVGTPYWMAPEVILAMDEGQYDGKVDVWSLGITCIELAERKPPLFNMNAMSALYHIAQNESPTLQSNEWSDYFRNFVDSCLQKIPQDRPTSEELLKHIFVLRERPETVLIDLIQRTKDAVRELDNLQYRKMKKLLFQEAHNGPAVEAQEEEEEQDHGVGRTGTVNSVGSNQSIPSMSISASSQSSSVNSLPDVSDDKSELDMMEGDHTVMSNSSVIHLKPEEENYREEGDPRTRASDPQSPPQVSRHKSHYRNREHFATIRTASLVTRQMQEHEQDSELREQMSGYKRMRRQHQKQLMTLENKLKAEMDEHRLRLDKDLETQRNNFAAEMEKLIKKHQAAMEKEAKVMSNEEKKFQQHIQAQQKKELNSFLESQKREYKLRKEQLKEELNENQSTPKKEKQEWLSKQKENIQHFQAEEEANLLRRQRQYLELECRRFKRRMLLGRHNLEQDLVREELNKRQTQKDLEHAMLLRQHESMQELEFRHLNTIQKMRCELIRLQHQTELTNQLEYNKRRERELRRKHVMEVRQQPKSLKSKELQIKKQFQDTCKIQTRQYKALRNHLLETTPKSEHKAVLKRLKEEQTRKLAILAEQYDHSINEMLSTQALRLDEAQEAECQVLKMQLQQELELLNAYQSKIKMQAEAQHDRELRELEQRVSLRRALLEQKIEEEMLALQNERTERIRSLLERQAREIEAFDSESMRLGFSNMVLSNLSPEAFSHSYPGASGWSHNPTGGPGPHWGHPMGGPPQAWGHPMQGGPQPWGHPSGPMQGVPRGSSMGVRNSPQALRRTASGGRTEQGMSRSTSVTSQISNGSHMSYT

[4] = biological target: T3, Serine/threonine-protein kinase TBK1 (Homo sapiens) (UniProt Q9UHD2); assay: Selectivity interaction (KinomeScan (DiscoverX)) EUB0000618a TBK1; conditions: at 10 µM
T3 sequence (whole entry): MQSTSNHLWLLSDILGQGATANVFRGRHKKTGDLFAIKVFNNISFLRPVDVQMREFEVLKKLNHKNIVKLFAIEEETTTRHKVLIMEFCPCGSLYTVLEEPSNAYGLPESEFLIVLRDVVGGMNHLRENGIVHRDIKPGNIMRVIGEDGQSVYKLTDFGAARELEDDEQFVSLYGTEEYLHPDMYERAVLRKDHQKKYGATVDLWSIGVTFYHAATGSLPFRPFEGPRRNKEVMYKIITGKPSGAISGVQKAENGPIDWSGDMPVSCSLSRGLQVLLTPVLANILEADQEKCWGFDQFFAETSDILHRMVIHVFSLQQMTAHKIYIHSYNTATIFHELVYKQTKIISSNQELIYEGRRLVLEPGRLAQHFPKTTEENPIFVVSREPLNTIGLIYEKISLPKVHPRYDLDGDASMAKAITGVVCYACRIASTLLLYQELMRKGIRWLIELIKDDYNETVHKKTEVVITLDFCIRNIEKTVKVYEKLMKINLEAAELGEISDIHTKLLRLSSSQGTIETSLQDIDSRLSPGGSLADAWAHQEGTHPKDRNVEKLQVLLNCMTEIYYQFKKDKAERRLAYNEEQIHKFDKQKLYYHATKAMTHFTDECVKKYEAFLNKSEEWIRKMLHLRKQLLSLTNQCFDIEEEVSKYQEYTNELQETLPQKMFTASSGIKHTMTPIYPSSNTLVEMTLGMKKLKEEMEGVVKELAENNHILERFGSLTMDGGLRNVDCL

[5] = biological target: T4, Serine/threonine-protein kinase 17A (Homo sapiens) (UniProt Q9UEE5); conditions: at 10 µM
T4 sequence (whole entry): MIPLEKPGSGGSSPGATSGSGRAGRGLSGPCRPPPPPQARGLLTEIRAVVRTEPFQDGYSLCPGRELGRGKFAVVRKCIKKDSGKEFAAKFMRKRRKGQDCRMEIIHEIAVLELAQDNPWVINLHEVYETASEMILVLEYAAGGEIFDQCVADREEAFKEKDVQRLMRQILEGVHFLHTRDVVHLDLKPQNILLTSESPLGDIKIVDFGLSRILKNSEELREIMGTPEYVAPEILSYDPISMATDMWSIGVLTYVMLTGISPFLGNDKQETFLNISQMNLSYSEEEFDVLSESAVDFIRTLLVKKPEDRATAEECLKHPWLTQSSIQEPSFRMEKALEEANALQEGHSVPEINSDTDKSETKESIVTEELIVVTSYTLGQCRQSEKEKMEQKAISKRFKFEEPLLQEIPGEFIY

[6] = biological target: Mitogen-activated protein kinase 10 (Homo sapiens, UniProt P53779); assay: Selectivity interaction (ActivX KiNativ screen (ex vivo kinase selectivity in human PBMCs)) EUB0001619a MAPK10; format: cell-based; conditions: PBMC, at 1 µM
Mitogen-activated protein kinase 10, sequence (P53779 whole entry): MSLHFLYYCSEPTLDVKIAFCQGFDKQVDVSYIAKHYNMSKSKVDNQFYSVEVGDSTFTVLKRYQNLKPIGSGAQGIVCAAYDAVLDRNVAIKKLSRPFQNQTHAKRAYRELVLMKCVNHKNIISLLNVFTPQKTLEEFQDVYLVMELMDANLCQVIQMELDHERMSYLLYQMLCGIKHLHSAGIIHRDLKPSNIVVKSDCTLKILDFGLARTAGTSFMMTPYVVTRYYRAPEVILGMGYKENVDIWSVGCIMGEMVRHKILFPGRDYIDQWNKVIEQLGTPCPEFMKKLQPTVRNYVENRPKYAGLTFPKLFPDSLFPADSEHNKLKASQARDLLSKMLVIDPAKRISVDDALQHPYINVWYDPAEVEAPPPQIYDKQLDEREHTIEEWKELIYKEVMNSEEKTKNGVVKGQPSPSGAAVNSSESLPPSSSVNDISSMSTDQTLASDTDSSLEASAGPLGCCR

COCC(=O)NC/C=C/c1ccc2ncnc(Nc3ccc(Oc4ccc(C)nc4)c(C)c3)c2c1 [CP-724714]
% of control [1]: 67%

CN(C)C/C=C/C(=O)Nc1ccc(C(=O)N2CCCC(Nc3ncc(Cl)c(-c4c[nH]c5ccccc45)n3)C2)cc1 (configuration not stated)
% of control [2]: 0.55%

C=CC(=O)Nc1cc(-n2c(=O)ccc3cnc4ccc(-c5ccc(NS(C)(=O)=O)cc5)cc4c32)ccc1C
% of control ([3]; at 1 µM): 100% | % of control ([3]; at 10 µM): 79%

O[C@H]1CC[C@H](Nc2ncc3nc(Nc4c(F)cc(F)cc4F)n([C@H]4CCOC4)c3n2)CC1
% of control [4]: 74%

Cc1cc([C@@H](C)Nc2ccccc2C(=O)O)c2nc(N3CCOCC3)cc(=O)n2c1 [AZD-6482]
% of control [5]: 98%

N#Cc1cccc(-c2c[nH]c3ncnc(N4CCOCC4)c23)c1
% of inhibition [6]: 5%

Reference: ChEMBL document CHEMBL5465560, “Selectivity Literature for EUbOPEN Chemogenomic Library” (2024)
